Experimental data: PubChem BioAssay AID1919004 (Molecular Pharmacology Branch, DTP, NCI, 2023)
“And” between values parts separate entries of the source, which are not always exact repeats. Equal entries are not always repeated. One block for each compound: values may come before it.

Tested on: 883617-216-R-J1-PDC complex spheroids, growth, % test/control
Assay: Anticancer human tumor 883617-216-R-J1-PDC patient-derived bladder carcinoma cell line growth inhibition [AhR]
Conditions: for viability, T/C: stronger effect = lower value
Summary of the method: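 Spheroids combined tumor cells with HUVEC endothelial cells and human MSCs as stroma. AhR antagonists were paired with standard or investigational drugs, each dosed in half-log steps down from near clinical Cmax, or from 10 microM where Cmax was unknown.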
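Also: exposure lasted 7 days after dosing on day 3 of spheroid growth.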

IC50 (curve of first compound, second compound 0.1 µM): > 3 µM
IC50 (curve of first compound, second compound 0.316 µM): > 3 µM
IC50 (curve of first compound, second compound 1 µM): > 3 µM
IC50 (curve of first compound, second compound 3.16 µM): > 3 µM
IC50 (curve of first compound, second compound 10 µM): 2.65 µM
Compound: CCN(c1cc(-c2ccc(CN3CCOCC3)cc2)cc(C(=O)NCc2c(C)cc(C)[nH]c2=O)c1C)C1CCOCC1 + CC(CO)NC(=O)c1cc(-c2ccc(Cl)cc2)nn(-c2cnn(C)c2)c1=O
viability, T/C (second compound 0.1 µM, first compound 0.00949 µM): 94.7%
viability, T/C (second compound 0.1 µM, first compound 0.03 µM): 101%
viability, T/C (second compound 0.1 µM, first compound 0.0949 µM): 75.5%
viability, T/C (second compound 0.1 µM, first compound 0.3 µM): 85.5%
viability, T/C (second compound 0.1 µM, first compound 0.949 µM): 118%
viability, T/C (second compound 0.1 µM, first compound 3 µM): 112%
viability, T/C (second compound 0.316 µM, first compound 0.00949 µM): 83.9%
viability, T/C (second compound 0.316 µM, first compound 0.03 µM): 70.8%
viability, T/C (second compound 0.316 µM, first compound 0.0949 µM): 76.5%
viability, T/C (second compound 0.316 µM, first compound 0.3 µM): 88.5%
viability, T/C (second compound 0.316 µM, first compound 0.949 µM): 77.7%
viability, T/C (second compound 0.316 µM, first compound 3 µM): 80.8%
viability, T/C (second compound 1 µM, first compound 0.00949 µM): 96.1%
viability, T/C (second compound 1 µM, first compound 0.03 µM): 63.2%
viability, T/C (second compound 1 µM, first compound 0.0949 µM): 92.5%
viability, T/C (second compound 1 µM, first compound 0.3 µM): 98.4%
viability, T/C (second compound 1 µM, first compound 0.949 µM): 124%
viability, T/C (second compound 1 µM, first compound 3 µM): 86%
viability, T/C (second compound 3.16 µM, first compound 0.00949 µM): 80.7%
viability, T/C (second compound 3.16 µM, first compound 0.03 µM): 85%
viability, T/C (second compound 3.16 µM, first compound 0.0949 µM): 122%
viability, T/C (second compound 3.16 µM, first compound 0.3 µM): 102%
viability, T/C (second compound 3.16 µM, first compound 0.949 µM): 60.4%
viability, T/C (second compound 3.16 µM, first compound 3 µM): 100%
viability, T/C (second compound 10 µM, first compound 0.00949 µM): 62.8%
viability, T/C (second compound 10 µM, first compound 0.03 µM): 88.9%
viability, T/C (second compound 10 µM, first compound 0.0949 µM): 74.5%
viability, T/C (second compound 10 µM, first compound 0.3 µM): 132%
viability, T/C (second compound 10 µM, first compound 0.949 µM): 98.5%
viability, T/C (second compound 10 µM, first compound 3 µM): 45%

IC50 (curve of compound): > 10 µM
Compound: COc1cc(Nc2ncc3c(n2)-c2ccc(Cl)cc2C(c2c(F)cccc2OC)=NC3)ccc1C(=O)O
viability, T/C (compound 0.0316 µM): 88.6% and 85% and 80.8%
viability, T/C (compound 0.1 µM): 78.9% and 73.3% and 119%
viability, T/C (compound 0.316 µM): 75.5% and 72% and 97.8%
viability, T/C (compound 1 µM): 74.1% and 70.4% and 84.2%
viability, T/C (compound 3.16 µM): 71.2% and 71% and 109%
viability, T/C (compound 10 µM): 72.2% and 65.5% and 117%
